Source: PubChem BioAssay AID256 (DTP/NCI, 2004)
Where “and” joins values, the source holds several entries; their conditions need not be identical. Equal values may be shown once. Toxic doses and inconclusive results are not listed. The calls were made as follows: active = survival T/C of 150% or more; inactive = T/C below 125% in these data.

Tested on: CD2F1 mice, L1210 leukemia ip, survival T/C
Experiment: NCI In Vivo Anticancer Drug Screen. Data for tumor model L1210 Leukemia (intraperitoneal) in CD2F1 (CDF1) mice
Conditions: higher = longer survival
Outline: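 Each value reflects a quotient of treated over vehicle control outcomes in mice with a transplanted tumor.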

[1] = endpoint: mean survival time, dose: 50.0 mg/kg/injection, schedule: Q01DX009 (ip), vehicle: saline with Tween-80
[2] = endpoint: mean survival time, dose: 100.0 mg/kg/injection, schedule: Q04DX003 (ip), vehicle: saline with Tween-80
[3] = endpoint: mean survival time, dose: 400.0 mg/kg/injection, schedule: Q04DX003 (ip), vehicle: saline with Tween-80
[4] = endpoint: mean survival time, dose: 100.0 mg/kg/injection, schedule: Q01DX009 (ip), vehicle: saline with Tween-80
[5] = endpoint: mean survival time, dose: 200.0 mg/kg/injection, schedule: Q01DX009 (ip), vehicle: saline with Tween-80
[6] = endpoint: mean survival time, dose: 200.0 mg/kg/injection, schedule: Q04DX003 (ip), vehicle: saline with Tween-80
[7] = endpoint: mean survival time, dose: 50.0 mg/kg/injection, schedule: Q01DX001 (ip), vehicle: saline
[8] = endpoint: mean survival time, dose: 100.0 mg/kg/injection, schedule: Q01DX001 (ip), vehicle: saline
[9] = endpoint: mean survival time, dose: 200.0 mg/kg/injection, schedule: Q01DX001 (ip), vehicle: saline
[10] = endpoint: mean survival time, dose: 400.0 mg/kg/injection, schedule: Q01DX001 (ip), vehicle: saline
[11] = endpoint: mean survival time, dose: 100.0 mg/kg/injection, schedule: Q01DX001 (ip), vehicle: saline with Tween-80
[12] = endpoint: mean survival time, dose: 200.0 mg/kg/injection, schedule: Q01DX001 (ip), vehicle: saline with Tween-80
[13] = endpoint: mean survival time, dose: 400.0 mg/kg/injection, schedule: Q01DX001 (ip), vehicle: saline with Tween-80

Measured: T/C

NCCS[As](=O)(O)SCCN
inactive: endpoint: mean survival time, dose: 12.5 mg/kg/injection, schedule: Q01DX009 (ip), vehicle: saline with Tween-80 97 % of control | endpoint: mean survival time, dose: 12.5 mg/kg/injection, schedule: Q04DX003 (ip), vehicle: saline 101 % of control | endpoint: mean survival time, dose: 25.0 mg/kg/injection, schedule: Q01DX009 (ip), vehicle: saline with Tween-80 103 % of control | endpoint: mean survival time, dose: 25.0 mg/kg/injection, schedule: Q04DX003 (ip), vehicle: saline 98 % of control | [1] 94 % of control | endpoint: mean survival time, dose: 50.0 mg/kg/injection, schedule: Q04DX003 (ip), vehicle: saline 101 % of control

Nc1nc2c(c(=O)[nH]1)N(C(=O)NCCCl)C(CNc1ccc(C(=O)NC(CCC(=O)O)C(=O)O)cc1)CN2 (centres undefined)
inactive: endpoint: mean survival time, dose: 100.0 mg/kg/injection, schedule: Q01DX001 (ip), vehicle: sodium bicarbonate 94 % of control | endpoint: mean survival time, dose: 200.0 mg/kg/injection, schedule: Q01DX001 (ip), vehicle: sodium bicarbonate 100 % of control | endpoint: mean survival time, dose: 400.0 mg/kg/injection, schedule: Q01DX001 (ip), vehicle: sodium bicarbonate 97 % of control

C#CCN(C)/N=N/c1nc[nH]c1C(N)=O
inactive: endpoint: mean survival time, dose: 12.5 mg/kg/injection, schedule: Q01DX009 (ip), vehicle: Klucel (hydroxypropylcellulose) (HPC) 123 % of control | endpoint: mean survival time, dose: 200.0 mg/kg/injection, schedule: Q01DX009 (ip), vehicle: Klucel (hydroxypropylcellulose) (HPC) 98 % of control

C/C=C/CC(C)C(O)C1C(=O)NC(CC)C(=O)N(C)CC(=O)N(C)C(CC(C)C)C(=O)NC(C(C)C)C(=O)N(C)C(CC(C)C)C(=O)NC(C)C(=O)NC(C)C(=O)N(C)C(CC(C)C)C(=O)N(C)C(CC(C)C)C(=O)N(C)C(C(C)C)C(=O)N1C (centres undefined)
inactive: endpoint: median survival time, dose: 25.0 mg/kg/injection, schedule: Q01DX009 (ip), vehicle: Klucel (hydroxypropylcellulose) (HPC) 102 % of control | endpoint: median survival time, dose: 50.0 mg/kg/injection, schedule: Q01DX009 (ip), vehicle: Klucel (hydroxypropylcellulose) (HPC) 107 % of control | endpoint: median survival time, dose: 100.0 mg/kg/injection, schedule: Q01DX009 (ip), vehicle: Klucel (hydroxypropylcellulose) (HPC) 106 % of control

Clc1cccc(-c2nc3ccccc3c3ccccc23)c1
inactive: [2] 93 % of control | [3] 98 % of control

CC1(C)C(C(=O)/C=C/c2ccccc2)C1[N+](=O)[O-] (centres undefined)
inactive: endpoint: mean survival time, dose: 100.0 mg/kg/injection, schedule: Q04DX002 (ip), vehicle: other 97 % of control | endpoint: mean survival time, dose: 200.0 mg/kg/injection, schedule: Q04DX002 (ip), vehicle: other 97 % of control | endpoint: mean survival time, dose: 400.0 mg/kg/injection, schedule: Q04DX002 (ip), vehicle: other 97 % of control

COc1ccc(C=NC2CC(C)CCC2C)c(OC)c1 (centres undefined)
inactive: [4] 86 % of control | [2] 91 % of control | [5] 89 % of control | [6] 95 % of control | endpoint: mean survival time, dose: 400.0 mg/kg/injection, schedule: Q01DX009 (ip), vehicle: saline with Tween-80 93 % of control | [3] 95 % of control

CCOC(=O)c1oc(C)nc1C
inactive: endpoint: mean survival time, dose: 12.5 mg/kg/injection, schedule: Q01DX001 (ip), vehicle: Klucel (hydroxypropylcellulose) (HPC) 90 % of control | endpoint: mean survival time, dose: 25.0 mg/kg/injection, schedule: Q01DX001 (ip), vehicle: Klucel (hydroxypropylcellulose) (HPC) 104 % of control | endpoint: mean survival time, dose: 50.0 mg/kg/injection, schedule: Q01DX001 (ip), vehicle: Klucel (hydroxypropylcellulose) (HPC) 98 % of control | endpoint: mean survival time, dose: 100.0 mg/kg/injection, schedule: Q01DX001 (ip), vehicle: Klucel (hydroxypropylcellulose) (HPC) 101 % of control | endpoint: mean survival time, dose: 200.0 mg/kg/injection, schedule: Q01DX001 (ip), vehicle: Klucel (hydroxypropylcellulose) (HPC) 98 % of control

C1CNCCNCCNCCN1
inactive: endpoint: mean survival time, dose: 12.5 mg/kg/injection, schedule: Q01DX009 (ip), vehicle: water 100 % of control | endpoint: mean survival time, dose: 25.0 mg/kg/injection, schedule: Q01DX009 (ip), vehicle: water 100 % of control | endpoint: mean survival time, dose: 50.0 mg/kg/injection, schedule: Q01DX009 (ip), vehicle: water 96 % of control | endpoint: mean survival time, dose: 100.0 mg/kg/injection, schedule: Q01DX009 (ip), vehicle: water 94 % of control

CCCCCCCCCCCCCCC/C([O-])=N/[N+](C)(C)CC(C)O (centres undefined)
inactive: endpoint: mean survival time, dose: 25.0 mg/kg/injection, schedule: Q01DX001 (ip), vehicle: saline 95 % of control and 100 % of control | [7] 100 % of control | [1] 89 % of control | [8] 89 % of control and 97 % of control | [4] 91 % of control | [9] 97 % of control | [10] 100 % of control

C[n+]1cnc2c(ccn2C2OC(CO)C(O)C2O)c1N (centres undefined)
inactive: [7] 102 % of control | [8] 100 % of control | [9] 102 % of control | [10] 100 % of control

NCC1CCCCO1 (centres undefined)
inactive: [7] 90 % of control | [8] 98 % of control | [9] 93 % of control

Cc1ccc(C(=O)C(F)(F)F)cc1
inactive: [11] 104 % of control | [12] 101 % of control | [13] 96 % of control

O=C(O)c1ccccc1F
inactive: [11] 96 % of control | [12] 107 % of control

Cc1cc(F)ccc1NC(=O)OC(C)C
inactive: [2] 101 % of control | [6] 92 % of control | [3] 104 % of control

Cc1c(N)nc([C@H](CC(N)=O)NC[C@H](N)C(N)=O)nc1C(=O)N[C@H](C(=O)N[C@H](C)[C@@H](O)CC(=O)N[C@H](C(=O)NC(O[C@@H]1O[C@@H](C)[C@@H](N)[C@@H](O)[C@H]1O)C(O)c1nc(-c2nc(C(=O)NCCCCN)cs2)cs1)[C@@H](C)O)[C@@H](O[C@@H]1O[C@@H](CO)[C@@H](O)[C@H](O)[C@@H]1O[C@H]1O[C@H](CO)[C@@H](O)[C@H](OC(N)=O)[C@@H]1O)c1c[nH]cn1 (some centres undefined)
inactive: endpoint: median survival time, dose: 1.0 mg/kg/injection, schedule: Q01DX009 (ip), vehicle: saline 106 % of control | endpoint: median survival time, dose: 2.0 mg/kg/injection, schedule: Q01DX009 (ip), vehicle: saline 112 % of control | endpoint: median survival time, dose: 4.0 mg/kg/injection, schedule: Q01DX009 (ip), vehicle: saline 119 % of control | endpoint: median survival time, dose: 8.0 mg/kg/injection, schedule: Q01DX009 (ip), vehicle: saline 118 % of control | endpoint: median survival time, dose: 16.0 mg/kg/injection, schedule: Q01DX009 (ip), vehicle: saline 120 % of control | endpoint: median survival time, dose: 32.0 mg/kg/injection, schedule: Q01DX009 (ip), vehicle: saline 108 % of control

O=c1c2ccccc2ncn1CCc1ccncc1
inactive: [8] 104 % of control | [9] 101 % of control | [10] 103 % of control

CCCCCC#CC(=O)OC
inactive: [1] 95 % of control | [4] 104 % of control | [2] 94 % of control | [5] 103 % of control | [6] 96 % of control

O=C(O)C1Cc2c([nH]c3ccccc23)C2CC(C3CC4c5[nH]c6ccccc6c5CC(C(=O)O)N4C3=O)C(=O)N12 (centres undefined)
inactive: endpoint: mean survival time, dose: 100.0 mg/kg/injection, schedule: Q04DX002 (ip), vehicle: saline with Tween-80 97 % of control | endpoint: mean survival time, dose: 200.0 mg/kg/injection, schedule: Q04DX002 (ip), vehicle: saline with Tween-80 93 % of control | endpoint: mean survival time, dose: 400.0 mg/kg/injection, schedule: Q04DX002 (ip), vehicle: saline with Tween-80 89 % of control

O=C(O)CCN(Cl)Cl
inactive: endpoint: mean survival time, dose: 1.56 mg/kg/injection, schedule: Q01DX009 (ip), vehicle: saline 97 % of control | endpoint: mean survival time, dose: 3.13 mg/kg/injection, schedule: Q01DX009 (ip), vehicle: saline 102 % of control | endpoint: mean survival time, dose: 6.25 mg/kg/injection, schedule: Q01DX009 (ip), vehicle: saline 100 % of control

CCCC(O)C(CC)[N+](=O)[O-] (centres undefined)
inactive: [11] 102 % of control | [12] 98 % of control | [13] 94 % of control
